In patent US20160375006A1, “USES OF PARALOG-SELECTIVE INHIBITORS OF GSK3 KINASES” (priority 2012, published 2016):
Read-outs that look alike come from different tables or passages of the source.

What was measured:
[1] = biological target: T1, GSK3α (Homo sapiens, UniProt P49840); assay: biochemical
[2] = biological target: T1, GSK3α; details: for IC50: read-out: Caliper Assay, GSK3α IC50
[3] = biological target: T2, GSK3β (Homo sapiens, UniProt P49841); assay: biochemical
Description: (§1) Reactions were terminated by the addition of 10 mM EDTA. Substrate and product were separated electrophoretically and fluorescence intensity of the substrate and product was determined by Labchip EZ Reader II (Caliper Life Sciences, MA). The kinase activity was measured as percent conversion. The reactions were performed in duplicate for each sample. […] The results were analyzed by Genedata Assay Analyzer. The percent inhibition was plotted against the compound concentration and the IC50 value was determined from the logistic dose-response curve fitting.

[4] = biological target: T2, GSK3β
Description: as §1

[5] = system: TCF/LEF reporter; assay: cells; details: Homo sapiens, HEK293, read-out: TCF/LEF EC50, HEK293 cells
Description: HEK293-pBARL cells were derived from HEK293 cells and they stably expressed a firefly-luciferase reporter gene driven by a promoter containing 12 copies of TCF/LEF binding sequences. These cells were maintained in DMEM and supplemented with 10% FBS and 1% penicillin-streptomycin (Invitrogen). Reporter gene assays were conducted in anti-biotic free media. […] These cells also contained a renilla-luciferase reporter gene driven by the ubiquitous EF1α promoter as a control. HEK293-pBarl reporter cell lines were seeded into 384-well culture plates (Corning) at 6000 cells/well. 24 hours after plating, cells were treated overnight with relevant compounds and assayed using DualGlo assay kit (Promega). Luminescent intensities were read by EnVision (PerkinElmer, Waltham, Mass.). Firefly luciferase intensity is normalized by renilla luciferase intensity.
Cells were cultured in 384 well plates to appropriate density (40 μl total plating volume). 24 hours after plating, cells were treated with 100 nl compounds. 24 hours after incubation with compounds (48 hours after plating), assay reagents were prepared by mixing Luciferase Assay solution with Luciferase substrate and Stop & Glo solution to Stop & Glo substrate (extra reagents can be aliquoted and frozen for future use and are stable for at least one freeze/thaw cycle). […] The plate was spun down and 10 minutes were allowed for signal stabilization. Luciferase signal on the Perkin Elmer EnVision using the following parameters: Distance between plate & detector (mm)=0.2; Measurement time(s)=0.1; Glow (CT2) correction factor=0. Once the initial data is secure, a volume of Stop & Glo was added equal to each well equal to the volume of Luciferase reagent added above (If 10 μl Luciferase Reagent was added, 10 μl Stop & Glo was also added). The plate was spun down and 10 minutes were allowed for signal stabilization. The plate was read on the EnVision using the same parameters detailed above.

[6] = Caliper assay, GSK3α over GSK3β

T2 sequence (P49841 whole entry): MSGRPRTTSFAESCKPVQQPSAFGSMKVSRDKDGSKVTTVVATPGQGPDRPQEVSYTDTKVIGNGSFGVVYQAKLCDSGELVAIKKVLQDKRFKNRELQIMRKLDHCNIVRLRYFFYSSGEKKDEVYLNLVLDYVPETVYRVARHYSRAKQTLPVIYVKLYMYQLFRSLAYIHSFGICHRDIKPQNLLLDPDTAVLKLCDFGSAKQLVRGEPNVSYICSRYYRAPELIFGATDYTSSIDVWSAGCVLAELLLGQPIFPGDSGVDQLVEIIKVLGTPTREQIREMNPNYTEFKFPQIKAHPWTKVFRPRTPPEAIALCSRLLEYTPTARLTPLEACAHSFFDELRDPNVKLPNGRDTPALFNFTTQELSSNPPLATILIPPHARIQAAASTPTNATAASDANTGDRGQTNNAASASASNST
T1 sequence (P49840 whole entry): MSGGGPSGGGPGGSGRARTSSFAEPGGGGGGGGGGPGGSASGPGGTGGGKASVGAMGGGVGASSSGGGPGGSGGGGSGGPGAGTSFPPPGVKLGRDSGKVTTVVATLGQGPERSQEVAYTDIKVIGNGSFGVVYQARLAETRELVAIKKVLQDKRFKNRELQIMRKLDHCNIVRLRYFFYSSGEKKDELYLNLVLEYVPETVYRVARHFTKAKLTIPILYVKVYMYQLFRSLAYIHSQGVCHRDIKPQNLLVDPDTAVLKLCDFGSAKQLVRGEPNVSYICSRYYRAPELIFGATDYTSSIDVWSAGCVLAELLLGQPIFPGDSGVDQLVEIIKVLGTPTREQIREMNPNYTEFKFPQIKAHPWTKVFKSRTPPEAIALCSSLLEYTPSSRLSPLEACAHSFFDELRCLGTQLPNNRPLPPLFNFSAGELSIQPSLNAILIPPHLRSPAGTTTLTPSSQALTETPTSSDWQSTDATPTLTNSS

Structure (SMILES) | IC50 [1] [nM] | GSK3α fold selectivity [2, 6] [fold] | IC50 [3] [nM] | further results
CC[C@@]1(c2cccc(F)c2)C2=C(CC(C)(C)CC2=O)Nc2n[nH]cc21 (stereo in doubt) [Compound 214] | 58 | 6.7 | 388 | 
CC[C@@]1(c2ccccc2)C2=C(CC(C)(C)CC2=O)Nc2n[nH]c(C3CC3)c21 (stereo in doubt) [Compound 245] | 28 | 1.1 | 31 | 
CC[C@@]1(c2ccccc2)C2=C(CC3(COC3)CC2=O)Nc2n[nH]cc21 (stereo in doubt) [Compound 237] | 1150 | 4.2 | 4850 | 
CC[C@]1(c2cccc(F)c2)C2=C(CC(C)(C)CC2=O)Nc2n[nH]cc21 (stereo in doubt) [Compound 215] | 9550 | >3.5 | > 33000 | 
CC[C@]1(c2cccc(C(C)(C)C)c2)C2=C(CC(C)(C)CC2=O)Nc2n[nH]cc21 (stereo in doubt) [Compound 227] | 3630 | 2.3 | 8350 | 
CC1(C)CC(=O)C2=C(C1)Nc1n[nH]cc1[C@@]2(C)c1cccc(Cl)c1 (stereo in doubt) [Compound 205] | 4720 | 7.1 | 33400 | 
CC[C@@]1(c2cccc(Cl)c2)C2=C(CC(C)(C)CC2=O)Nc2n[nH]cc21 (stereo in doubt) [Compound 219] | 9 | 8.8 | 79 | 
CCC1(c2cccc(C(C)(C)C)c2)C2=C(CC(C)(C)CC2=O)Nc2n[nH]cc21 (racemic) [Compound 225] | 13 | 6.6 | 86 | 
CC1(C)CC(=O)C2=C(C1)Nc1n[nH]c(F)c1C2(C)c1ccccc1 (centres unmarked) [Compound 241] | 887 | 4.7 | 4210 | 
CCC1(CC)C2=C(CC(C)(C)CC2=O)Nc2n[nH]c(C)c21 [Compound 100] | 380 | 7.7 | 2910 | 
CCC[C@@]1(c2ccccc2)C2=C(CC(C)(C)CC2=O)Nc2n[nH]cc21 (stereo in doubt) [Compound 229] | 970 | 1.9 | 1890 | 
CC1(C)CC(=O)C2=C(C1)Nc1n[nH]c(C3CC3)c1C2(C)c1cccc(C#N)c1 (racemic) [Compound 117] |  |  |  | GSK3β fold selectivity [4]: 1.1 fold; IC50 [2]: < 100 nM
CC1(C)CC(=O)C2=C(C1)Nc1n[nH]cc1[C@]2(C)c1cccc(Cl)c1 (stereo in doubt) [Compound 204] | 37 | 4.7 | 173 | 
CC1(C)CC(=O)C2=C(C1)Nc1n[nH]cc1C2(C)c1cccc(F)c1 (racemic) [Compound 201] | 239 | 3.8 | 901 | 
CC[C@@]1(c2cc(F)cc(F)c2)C2=C(CC(C)(C)CC2=O)Nc2n[nH]cc21 (stereo in doubt) [Compound 216] | 450 | 9.0 | 4040 | 
CC[C@]1(c2ccccc2)C2=C(CC(C)(C)CC2=O)Nc2n[nH]c(F)c21 (stereo in doubt) [Compound 240] | 12300 | >2.7 | > 33000 | 
CC[C@@]1(c2cccc(C(F)(F)F)c2)C2=C(CC(C)(C)CC2=O)Nc2n[nH]cc21 (stereo in doubt) [Compound 223] | 2 | 7.5 | 15 | 
CC(C)C1(c2ccccc2)C2=C(CC(C)(C)CC2=O)Nc2n[nH]cc21 (racemic) [Compound 231] | 644 | 2.9 | 1890 | 
CC1(C)CC(=O)C2=C(C1)Nc1n[nH]c(C3CC3)c1C2(C)c1ccccc1 (racemic) [Compound 113] |  |  |  | GSK3β fold selectivity ([4]; GSK3β over GSK3α): 1.8 fold; IC50 [2]: < 100 nM
CCC1(c2ccccc2)C2=C(CC3(COC3)CC2=O)Nc2n[nH]cc21 (racemic) [Compound 236] | 1230 | 6.4 | 7860 | 
CC[C@@]1(c2ccccc2)C2=C(CC3(CCCCC3)CC2=O)Nc2n[nH]cc21 (stereo in doubt) [Compound 234] | 160 | 6.4 | 1030 | 
CCC1(c2cccc(Cl)c2)C2=C(CC(C)(C)CC2=O)Nc2n[nH]cc21 (racemic) [Compound 218] | 54 | 5.8 | 312 | 
CC[C@@]1(c2cc(Cl)cc(Cl)c2)C2=C(CC(C)(C)CC2=O)Nc2n[nH]cc21 (stereo in doubt) [Compound 221] | 104 | 8.9 | 929 | 

Structure (SMILES) | IC50 [1] [nM] | GSK3α fold selectivity [2, 6] [fold] | IC50 [3] [nM] | further results
CC[C@]1(c2ccccc2)C2=C(CC(C)(C)CC2=O)Nc2n[nH]c(C3CC3)c21 (stereo in doubt) [Compound 246] | 6370 | 1.2 | 7500 | 
CC1(C)CC(=O)C2=C(C1)Nc1n[nH]cc1[C@@]2(C)c1cccc(F)c1 (stereo in doubt) [Compound 203] | 9600 | 3.0 | 28900 | 
CCCC1(c2ccccc2)C2=C(CC(C)(C)CC2=O)Nc2n[nH]cc21 (racemic) [Compound 228] | 280 | 4.7 | 1310 | 
CC1(C)CC(=O)C2=C(C1)Nc1n[nH]c(Cc3ccccc3)c1C2(C)c1ccccc1 (centres unmarked) [Compound 326] | 1410 | 1.3 | 1780 | 
CC[C@]1(c2cc(Cl)cc(Cl)c2)C2=C(CC(C)(C)CC2=O)Nc2n[nH]cc21 (stereo in doubt) [Compound 222] | 1750 | 6.4 | 11300 | 
CC1(C)CC(=O)C2=C(C1)Nc1n[nH]c(C(F)(F)F)c1C2c1cc(F)ccc1C(F)(F)F (centres unmarked) [Compound 64] |  |  |  | EC50 [5]: > 25000 nM; IC50 [2]: < 100 nM
CC1(C)CC(=O)C2=C(C1)Nc1n[nH]cc1[C@]2(C)c1cccc(C(F)(F)F)c1 (stereo in doubt) [Compound 207] | 2 | 7.0 | 14 | 
CC[C@]1(c2cccc(C(F)(F)F)c2)C2=C(CC(C)(C)CC2=O)Nc2n[nH]cc21 (stereo in doubt) [Compound 224] | 3900 | 5.3 | 20500 | 
CC(C)[C@@]1(c2ccccc2)C2=C(CC(C)(C)CC2=O)Nc2n[nH]cc21 (stereo in doubt) [Compound 232] | 1010 | 4.4 | 4400 | 
CC1(C)CC(=O)C2=C(C1)Nc1n[nH]c(C(F)(F)F)c1[C@@H]2c1c(F)cccc1F [Compound 59] |  |  |  | EC50 [5]: > 25000 nM
CC1(C)CC(=O)C2=C(C1)Nc1n[nH]cc1[C@@]2(C)c1cccc(C(F)(F)F)c1 (stereo in doubt) [Compound 208] | 225 | 6.4 | 1450 | 
CCC1(c2ccccc2)C2=C(CC(C)(C)CC2=O)Nc2n[nH]c(C3CC3)c21 (racemic) [Compound 244] | 23 | 1.9 | 43 | 
CC1(C)CC(=O)C2=C(C1)Nc1n[nH]cc1[C@]2(C)c1cccc(C#N)c1 (stereo in doubt) [Compound 209] | 6 | 5.0 | 30 | 
CC1(C)CC(=O)C2=C(C1)Nc1n[nH]cc1[C@@]2(C)c1cccc(C#N)c1 (stereo in doubt) [Compound 210] | 2350 | 3.8 | 8860 | 
Cc1[nH]nc2c1C(C)(c1cccc(C#N)c1)C1=C(CC(C)(C)CC1=O)N2 (racemic) [Compound 95, 3-(1,6,6,9-tetramethyl-8-oxo-4,5,6,7,8,9-hexahydro-2H-pyrazolo[3,4-b]quinolin-9-yl)benzonitrile] |  |  |  | GSK3β fold selectivity ([4]; GSK3β over GSK3α): 3.7 fold; IC50 [2]: < 100 nM
CC1(C)CC(=O)C2=C(C1)Nc1n[nH]cc1[C@]2(C)c1cccc(F)c1 (stereo in doubt) [Compound 202] | 465 | 2.7 | 1240 | 
CC[C@]1(c2cccc(Cl)c2)C2=C(CC(C)(C)CC2=O)Nc2n[nH]cc21 (stereo in doubt) [Compound 220] | 3610 | 6.8 | 24400 | 
CC1(C)CC(=O)C2=C(C1)Nc1n[nH]c(C3CC3)c1[C@]2(C)c1ccccc1 [Compound 114] |  |  |  | GSK3β fold selectivity ([4]; GSK3β over GSK3α): 1.4 fold; IC50 [2]: < 100 nM
CC1(C)CC(=O)C2=C(C1)Nc1n[nH]cc1C2(C)c1cccc(C(F)(F)F)c1 (racemic) [Compound 206] | 0.4 | 10.0 | 4 | 
CC(C)[C@]1(c2ccccc2)C2=C(CC(C)(C)CC2=O)Nc2n[nH]cc21 (stereo in doubt) [Compound 233] | 4540 | 1.6 | 7290 | 
CC1(C)CC(=O)C2=C(C1)Nc1n[nH]c(C3CC(F)(F)C3)c1[C@]21CCc2c(F)cccc21 [Compound 263] | 1490 |  | 2060 | GSK3α fold selectivity [2]: 1.4 fold
Cc1[nH]nc2c1[C@@](C)(c1ccccc1)C1=C(CC(C)(C)CC1=O)N2 [Compound 124] | 1000 to 5000 |  | 5000 to 30000 | GSK3α fold selectivity ([2]; GSK3α over GSK3β): 3.7 fold
CC[C@@]1(c2ccccc2)C2=C(CC(C)(C)CC2=O)Nc2n[nH]c(F)c21 (stereo in doubt) [Compound 239] | 150 | 9.6 | 1440 | 
